The source of these data is patent publication US6677460B1, “Aromatic carboxylic acid bicyclic sulfur compounds” (Idemitsu Kosan Company, Limited, priority 1993, dated 2004).

Holding throughout (assay type): in vivo
Conditions in all cases: 300 g a.i./hectare, 20th day after spraying

For experiment [1], the system named is barnyardgrass. The experiment is described as follows: Foliar treatment test (7). The procedure: (§1) 90 Parts by weight of the above carrier and 10 parts by weight of each of Compounds obtained in the above Preparation Examples were uniformly pulverized and mixed to obtain herbicides. Further, for Herbicide Comparative Examples, comparative herbicides were prepared by uniformly pulverizing and mixing 90 parts by weight of the above carrier and 10 parts by weight of each of the following Compounds x, y, A, B and C.
(§2) (7) Biological Test (Foliar Treatment Test, Herbicide Examples 43-47 and Comparative Examples 11 and 12)
(§3) Seeds of weeds such as large crabgrass, barnyardgrass, green foxtail, cocklebur, velvetleaf and slender amaranth and seeds of corn, wheat and barley were sown in 1/5,000-are Wagner pots filled with upland soil, and covered with upland soil. The seeds were grown in a greenhouse, and at the stage of 1 to 2 leaves of these plants, a predetermined amount of the herbicide prepared in the above (1) was suspended in water and uniformly sprayed onto leaf and stalk portions at a rate of 200 liter/10 ares. Thereafter, the plants were grown in the greenhouse, and on the 20th day after the spraying treatment, the herbicide was evaluated for herbicidal efficacy.
(§4) The herbicidal efficacy and phytotoxcity to crops were shown on the basis of the following ratings.
(§5) The ratio of remaining plant weight to non-treated was determined on the basis of the ratio of remaining plant weight to non-treated=(remaining plant weight in treated plot/remaining plant weight in non-treated plot)×100. This is also applicable to biological tests hereinafter.

Experiment [2] relates to cocklebur. The experiment is described as follows: Foliar treatment test (7). Here is the method:
as §1, §2, §3, §4, §5

Experiment [3] concerns green foxtail. The experiment is described as follows: Foliar treatment test (7). The procedure: as §1, §2, §3, §4, §5
Experiment [4] concerns large crabgrass. The experiment is described as follows: Foliar treatment test (7). The procedure:
as §1, §2, §3, §4, §5

Experiment [5] has as its system slender amaranth. The experiment is described as follows: Foliar treatment test (7). Here is the method:
as §1, §2, §3, §4, §5

Experiment [6] deals with velvetleaf. The experiment is described as follows: Foliar treatment test (7). Here is the method: as §1, §2, §3, §4, §5
Experiment [7] relates to barnyard grass. The experiment is described as follows: Upland soil treatment test (8). Here is the method: as §1
(§6) (8) Biological Test (Upland Soil Treatment Test, Herbicide Examples 48-52 and Herbicide Comparative Examples 13 and 14)
(§7) Seeds of weeds such as large crabgrass, barnyard brass, green foxtail, cocklebur, velvetleaf and slender amarnth and seeds of corn, wheat and barley were sown in 1/5,000-are Wagner pots filled with upland soil, and covert with upland soil. Then, a predetermined amount of the herbicide prepared in the above (1) was suspended in water and uniformly sprayed onto the soil surface. Thereafter, the plant were grown in the greenhouse, and on the 20th day after the spraying treatment, the herbicide was evaluated for herbicidal efficacy.
(§8) The herbicidal efficacy and the phytotoxicity to crops are shown on the basis of the ratings described in (2) Foliar treatment test.

The subject of experiment [8] is cocklebur. The experiment is described as follows: Upland soil treatment test (8). The procedure: as §1, §6, §7, §8
For experiment [9], the system named is green foxtail. The experiment is described as follows: Upland soil treatment test (8). Here is the method:
as §1, §6, §7, §8

Experiment [10] deals with large crabgrass. The experiment is described as follows: Upland soil treatment test (8). Here is the method:
as §1, §6, §7, §8

Experiment [11] concerns slender amaranth. The experiment is described as follows: Upland soil treatment test (8). The procedure: as §1, §6, §7, §8
The test system of experiment [12] is velvetleaf. The experiment is described as follows: Upland soil treatment test (8). Here is the method: as §1, §6, §7, §8
Further: ranges in brackets are in %.

With `CCn1ncc(C(=O)c2cc(C)c3c(c2C)C=CCS3)c1O` [Compound 47-1, 5,8-dimethyl-6-(1-ethyl-5-hydroxypyrazol-4-yl)carbonyl-3,4-dehydrothiochroman], the “Herbicidal Efficacy barnyard grass” value in experiment [1] and in [7] was 0 (81-100) each time. Moreover, the “Herbicidal Efficacy cocklebur” value in experiment [2] was 5 (0); in experiment [8], 0 (81-100). Besides, the “Herbicidal Efficacy green foxtail” value in experiment [3] and in experiment [9] was 0 (81-100) in each case. Moreover, the “Herbicidal Efficacy large crabgrass” value in experiment [4] and in [10] was 0 (81-100) throughout. In addition, the “Herbicidal Efficacy slender amaranth” value is 0 (81-100) in [5] and 5 (0) in [11]. In addition, the “Herbicidal Efficacy velvetleaf” value is 4 (1-20) in [6] and 0 (81-100) in experiment [12].
`CCn1ncc(C(=O)c2cc(C)c3c(c2C)CCCS3)c1O` [Compound 47-2, 5,8-dimethyl-6-(1-ethyl-5-hydroxypyrazol-4-yl)carbonylthiochroman]: the “Herbicidal Efficacy barnyard grass” value was 2 (41-60) in [1] and 5 (0) in [7]. Further, the “Herbicidal Efficacy cocklebur” value in experiment [2] is 5 (0); in [8], 0 (81-100). The “Herbicidal Efficacy green foxtail” value is on record as 5 (0) in experiment [3] and 4 (1-20) in [9]. The “Herbicidal Efficacy large crabgrass” value in experiment [4] is 5 (0); in experiment [10] it was 1 (61-80). The “Herbicidal Efficacy slender amaranth” value in experiment [5] and in [11] was 5 (0) each time. Moreover, the “Herbicidal Efficacy velvetleaf” value in experiment [6] and in experiment [12] was 5 (0) in each case.
